Converted amounts (≈) assume the structure as drawn. Read-outs that look alike come from different tables or passages of the source.
Columns and labels:
Assay type in all cases: cell-based
[1] = system: C. krusei 249/03(2) (ulceration); experiment: Robotic MIC assay, Candida strains (Example 2); conditions: Pichia kudriavzevii, 48 h, Mueller-Hinton broth, read-out: Minimum Inhibitory Concentration (MIC)
Procedure: (§1) A robotic MIC Assay was performed as follows. OligoG CF-5/20 were dissolved in medium (Mueller-Hinton broth or M19 broth depending on experiment) to 1.25 times of the desired assay concentrations (2, 6 and 10%). The antifungal agents under test were dissolved in medium without OligoG CF-5/20 and in medium with OligoG CF-5/20 at a concentration of 1.25 times the highest desired assay concentrations. For experiments where the effect of adding different concentrations of Na^+ was investigated, NaCl was dissolved in medium to the desired concentrations (10, 30 and 50 mM).
(§2) Two-fold serial dilutions of antifungal agents were made in medium with different concentrations of OligoG CF-5/20, and the solutions were placed in four parallel wells in Nunc 384-well micro plates (30 μl per well in Nunc 242757 microplates). A group of 8 wells with no addition of antifungal agents for each OligoG CF-5/20 concentration was included on each microplate as growth reference. To each well in the 384-well assay plates was added 7.5 μl of medium inoculated with a frozen stock culture of Candida albicans (strain CCUG 39343).
(§3) The micro plates were placed in plastic bags and incubated without shaking at 34° C. The optical density at 600 nm in the microwells was measured after approximately 13, 18, 24 and 34 hours of incubation, and the relative growth yield in each well was calculated based on the growth in the reference groups.
(§4) The robotic assay described in Example 1 was employed in this Example. Strains were grown in Mueller-Hinton broth (LAB114 from Lab M Limited) and MIC values (μg ml-1) were determined for each antifungal after incubation for 48 h in the presence of 0, 2, 6 and 10% OligoG CF-5/20 G-fragments. […] OligoG CF-5/20 G-fragments were provided by AlgiPharma AS, Norway.
(§5) Candida strains used were as follows: • C. albicans CCUG 39343 (strain from culture collection) • C. parapsillosis ATCC 22019T (strain from culture collection) • C. krusei 141/03 (candidosis) • C. krusei 249/03(2) (ulceration) • C. lusitaniae 994/01(2) (candidosis) • C. tropicalis 12 (vaginal) • C. tropicalis 75 (vaginal) • C. tropicalis 519468 (urinary) • C. tropicalis 544123 (urinary) • C. tropicalis 250/03 (candidosis) • C. tropicalis AG1 (oral) • C. tropicalis T2.2 (oral)

[2] = system: C. tropicalis AG1 (oral); experiment: Robotic MIC assay, Candida strains (Example 2); conditions: Candida tropicalis, 48 h, Mueller-Hinton broth, read-out: Minimum Inhibitory Concentration (MIC)
Procedure: as §1, §2, §3, §4, §5

[3] = system: C. tropicalis 519468 (urinary); experiment: Robotic MIC assay, Candida strains (Example 2); conditions: Candida tropicalis, 48 h, Mueller-Hinton broth, read-out: Minimum Inhibitory Concentration (MIC)
Procedure: as §1, §2, §3, §4, §5

[4] = system: C. tropicalis 250/03 (candidosis); experiment: Robotic MIC assay, Candida strains (Example 2); conditions: Candida tropicalis, 48 h, C. tropicalis 250/03 Candiosis, Mueller-Hinton broth, read-out: Minimum Inhibitory Concentration (MIC)
Procedure: as §1, §2, §3, §4, §5

[5] = system: C. tropicalis 544123 (urinary); experiment: Robotic MIC assay, Candida strains (Example 2); conditions: Candida tropicalis, 48 h, Mueller-Hinton broth, read-out: Minimum Inhibitory Concentration (MIC)
Procedure: as §1, §2, §3, §4, §5

[6] = system: C. tropicalis 75 (vaginal); experiment: Robotic MIC assay, Candida strains (Example 2); conditions: Candida tropicalis, 48 h, Mueller-Hinton broth, read-out: Minimum Inhibitory Concentration (MIC)
Procedure: as §1, §2, §3, §4, §5

[7] = system: C. lusitaniae 994/01(2) (candidosis); experiment: Robotic MIC assay, Candida strains (Example 2); conditions: Clavispora lusitaniae, 48 h, Mueller-Hinton broth, read-out: Minimum Inhibitory Concentration (MIC)
Procedure: as §1, §2, §3, §4, §5

[8] = system: C. tropicalis 12 (vaginal); experiment: Robotic MIC assay, Candida strains (Example 2); conditions: Candida tropicalis, 48 h, Mueller-Hinton broth, read-out: Minimum Inhibitory Concentration (MIC)
Procedure: as §1, §2, §3, §4, §5

[9] = system: C. albicans CCUG 39343; experiment: Robotic MIC assay, Candida strains (Example 2); conditions: Candida albicans, CCUG39343, 48 h, Mueller-Hinton broth, read-out: Minimum Inhibitory Concentration (MIC)
Procedure: as §1, §2, §3, §4, §5

[10] = system: Cryptococcus neoformans CCUG 23451; experiment: Robotic MIC assay, Cryptococcus neoformans (Example 6); conditions: for MIC: Cryptococcus neoformans, read-out: Minimum Inhibitory Concentration (MIC)
Procedure: Cryptococcus sp. was grown at 30° C. for 96 h on YM-agar. Spores and aerial mycelium was cut out from the agar, suspended in 1 ml YM-broth and dispersed with glass beads (1 mm) in a mini bead beater for 2 min. The suspension was added glycerol to 10% and frozen at −80° C. Each batch of frozen stock culture was then characterized in separate growth experiments using Mueller-Hinton and RPMI to determine the minimum amount of inoculum giving satisfactory growth after 48 h under the conditions relevant for the MIC assay. This inoculum procedure is used in order to reduce day to day variation in bioassays.
Robotic minimum inhibitory concentration (MIC) assay was performed as follows. OligoG CF-5/20 was dissolved in medium (Mueller-Hinton, RPMI with 2% glucose, Sabouraud or YM) to 1.25 times of the desired assay concentrations (2, 6 and 10%). […].
Two-fold serial dilutions of antifungal agents were made in medium with different concentrations of OligoG CF-5/20, and the solutions were placed in four parallel wells in Nunc 384-well micro plates (30 μl per well in Nunc 242757 microplates). A group of 8 wells with no addition of antifungal agents for each OligoG CF-5/20 concentration was included on each micro plate as growth reference. Each well in the 384-well assay plates was added 7.5 μl of the medium innoculated with frozen stock culture of the relevant strains.
The microplates were placed in plastic bags and incubated without shaking at 34° C. The optical density at 600 nm in the microwells was measured after certain time points from 24 h to 96 h of incubation. […]

## OC(Cn1cncn1)(Cn1cncn1)c1ccc(F)cc1F [Fluconazole, fluconazole]
[1]; 0% OligoG
  MIC: 8 µg/mL (≈ 26.1 µM)
[1]; 2% OligoG
  MIC: 4 µg/mL (≈ 13.1 µM)
[1]; 6% OligoG
  MIC: 2 µg/mL (≈ 6.53 µM)
[1]; 10% OligoG
  MIC: 1 µg/mL (≈ 3.27 µM)
[2]; 0% OligoG
  MIC: 128 µg/mL (≈ 418 µM)
[2]; 2% OligoG
  MIC: > 128 µg/mL
[2]; 6% OligoG
  MIC: 0.5 µg/mL (≈ 1.63 µM)
[2]; 10% OligoG
  MIC: 0.125 µg/mL (≈ 0.408 µM)
[3]; 0% OligoG
  MIC: 128 µg/mL (≈ 418 µM)
[3]; 2% OligoG
  MIC: 1 µg/mL (≈ 3.27 µM)
[3]; 6% OligoG
  MIC: 0.5 µg/mL (≈ 1.63 µM)
[3]; 10% OligoG
  MIC: 0.25 µg/mL (≈ 0.816 µM)
[4]; 0% OligoG
  MIC: 8 µg/mL (≈ 26.1 µM)
[4]; 2% OligoG
  MIC: 4 µg/mL (≈ 13.1 µM)
[4]; 6% OligoG
  MIC: 2 µg/mL (≈ 6.53 µM)
[4]; 10% OligoG
  MIC: 2 µg/mL (≈ 6.53 µM)
[5]; 0% OligoG
  MIC: 1 µg/mL (≈ 3.27 µM)
[5]; 2% OligoG
  MIC: 1 µg/mL (≈ 3.27 µM)
[5]; 6% OligoG
  MIC: 0.5 µg/mL (≈ 1.63 µM)
[5]; 10% OligoG
  MIC: 0.25 µg/mL (≈ 0.816 µM)
[6]; 0% OligoG
  MIC: 2 µg/mL (≈ 6.53 µM)
[6]; 2% OligoG
  MIC: 1 µg/mL (≈ 3.27 µM)
[6]; 6% OligoG
  MIC: 0.5 µg/mL (≈ 1.63 µM)
[6]; 10% OligoG
  MIC: 0.25 µg/mL (≈ 0.816 µM)
[7]; 0% OligoG
  MIC: 0.5 µg/mL (≈ 1.63 µM)
[7]; 2% OligoG
  MIC: 0.25 µg/mL (≈ 0.816 µM)
[7]; 6% OligoG
  MIC: < 0.125 µg/mL
[7]; 10% OligoG
  MIC: < 0.125 µg/mL
[8]; 0% OligoG
  MIC: 1 µg/mL (≈ 3.27 µM)
[8]; 2% OligoG
  MIC: 1 µg/mL (≈ 3.27 µM)
[8]; 6% OligoG
  MIC: < 0.125 µg/mL
[8]; 10% OligoG
  MIC: < 0.125 µg/mL
[9]; 0% OligoG
  MIC: 16 µg/mL (≈ 52.2 µM)
[9]; 2% OligoG
  MIC: 16 µg/mL (≈ 52.2 µM)
[9]; 6% OligoG
  MIC: 8 µg/mL (≈ 26.1 µM)
[9]; 10% OligoG
  MIC: 4 µg/mL (≈ 13.1 µM)
[10]; CCUG23451, 72 h, RPMI 2% GLU, 0% OligoG, 72 hours
  MIC: 2 µg/mL (≈ 6.53 µM)
[10]; CCUG23451, 72 h, RPMI 2% GLU, 2% OligoG, 72 hours
  MIC: 1 µg/mL (≈ 3.27 µM)
[10]; CCUG23451, 72 h, RPMI 2% GLU, 6% OligoG, 72 hours
  MIC: 0.5 µg/mL (≈ 1.63 µM)
[10]; CCUG23451, 72 h, Sabouraud, 0% OligoG, 72 hours
  MIC: 1 µg/mL (≈ 3.27 µM)
[10]; CCUG23451, 72 h, Sabouraud, 2% OligoG, 72 hours
  MIC: 0.5 µg/mL (≈ 1.63 µM)
[10]; CCUG23451, 72 h, Sabouraud, 6% OligoG, 72 hours
  MIC: 0.5 µg/mL (≈ 1.63 µM)
[10]; CCUG23451, 72 h, YM, 0% OligoG, 72 hours
  MIC: 1 µg/mL (≈ 3.27 µM)
[10]; CCUG23451, 72 h, YM, 2% OligoG, 72 hours
  MIC: 0.5 µg/mL (≈ 1.63 µM)
[10]; CCUG23451, 96 h, MH, 0% OligoG, 96 hours
  MIC: 2 µg/mL (≈ 6.53 µM)
[10]; CCUG23451, 96 h, MH, 2% OligoG, 96 hours
  MIC: 0.5 µg/mL (≈ 1.63 µM)
[10]; CCUG23451, 96 h, RPMI 2% GLU, 0% OligoG, 96 hours
  MIC: 2 µg/mL (≈ 6.53 µM)
[10]; CCUG23451, 96 h, RPMI 2% GLU, 2% OligoG, 96 hours
  MIC: 1 µg/mL (≈ 3.27 µM)
[10]; CCUG23451, 96 h, RPMI 2% GLU, 6% OligoG, 96 hours
  MIC: 1 µg/mL (≈ 3.27 µM)
[10]; CCUG23451, 96 h, RPMI 2% GLU, 10% OligoG, 96 hours
  MIC: 1 µg/mL (≈ 3.27 µM)
[10]; CCUG23451, 96 h, Sabouraud, 0% OligoG, 96 hours
  MIC: 1 µg/mL (≈ 3.27 µM)
[10]; CCUG23451, 96 h, Sabouraud, 2% OligoG, 96 hours
  MIC: 0.5 µg/mL (≈ 1.63 µM)
[10]; CCUG23451, 96 h, Sabouraud, 6% OligoG, 96 hours
  MIC: 0.5 µg/mL (≈ 1.63 µM)
[10]; CCUG23451, 96 h, YM, 0% OligoG, 96 hours
  MIC: 1 µg/mL (≈ 3.27 µM)
[10]; CCUG23451, 96 h, YM, 2% OligoG, 96 hours
  MIC: 1 µg/mL (≈ 3.27 µM)
[10]; media: RPMI with 2% glucose, MH, Sabouraud, YM
  effect on MIC when OligoG is added to the medium: reduction in MIC in all media tested

From patent US20150126467A1, “USE OF ALGINATE OLIGOMERS TO ENHANCE THE EFFECTS OF ANTIFUNGAL AGENTS” (AlgiIPharma AS, priority 2011, published 2015)
